# Laboratory results: publication PMC3713777 (Bioorganic & medicinal chemistry, 2010)
# Assays:
# [1] = test system: SERT; test: SERT binding, inhibition of [3H]paroxetine; conditions: ratio of Ki values taken from reference 21
# [2] = biological target: NET; conditions: read-out: NET (Ki); value taken from the literature; cited from earlier work
# [3] = biological target: serotonin transporter (SERT) (Rattus norvegicus, UniProt P31652); test: [3H]citalopram binding assay; conditions: ratio of Ki values measured in this paper
# Sequence of serotonin transporter (SERT) (P31652 whole entry): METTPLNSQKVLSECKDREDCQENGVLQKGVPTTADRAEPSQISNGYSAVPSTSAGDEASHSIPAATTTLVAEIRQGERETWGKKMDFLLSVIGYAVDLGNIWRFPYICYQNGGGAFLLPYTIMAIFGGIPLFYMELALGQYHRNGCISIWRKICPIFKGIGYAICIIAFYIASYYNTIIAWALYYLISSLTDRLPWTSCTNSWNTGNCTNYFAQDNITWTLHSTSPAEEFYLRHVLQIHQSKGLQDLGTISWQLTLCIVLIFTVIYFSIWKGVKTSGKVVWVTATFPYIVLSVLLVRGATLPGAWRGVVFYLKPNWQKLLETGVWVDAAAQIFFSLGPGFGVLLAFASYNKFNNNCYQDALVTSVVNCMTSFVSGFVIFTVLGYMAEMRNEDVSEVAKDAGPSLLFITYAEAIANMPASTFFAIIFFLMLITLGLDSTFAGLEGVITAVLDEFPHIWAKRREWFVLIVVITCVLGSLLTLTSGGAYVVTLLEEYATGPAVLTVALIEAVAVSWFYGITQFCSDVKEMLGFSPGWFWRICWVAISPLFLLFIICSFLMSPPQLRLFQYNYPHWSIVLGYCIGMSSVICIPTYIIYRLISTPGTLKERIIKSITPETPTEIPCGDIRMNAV
SMILES,NET/SERT [1],DAT/SERT [3],further results
CCOC(=O)C1(c2ccc(Cl)c(Cl)c2)CCN(C)CC1.Cl [Compound 2a],"4,000",–,Ki [2]: 74.5 µM
CCOC(=O)C1(c2ccc(I)cc2)CCN(C)CC1.Cl [Compound 2c],"25,000",–,–
CCOC(=O)C1(c2ccc3ccccc3c2)CCN(C)CC1.Cl [Compound 2d],"9,900",–,–
"CCOC(=O)C1(c2ccc(I)cc2)CCNCC1.Cl [Compound 4c, Ethyl 4-(4-iodophenyl)-piperidine-4-carboxylate]",–,"1,400",–
"CN1CCC(C(=O)OCc2ccc(Cl)c(Cl)c2)(c2ccc(Cl)c(Cl)c2)CC1.Cl [Compound 8d, 3,4-Dichlorobenzyl 4-(3,4-dichlorophenyl)-1-methylpiperidine-4-carboxylate]",–,"1,200",–
"Cl.O=C(OCc1ccccc1)C1(c2ccc(Cl)c(Cl)c2)CCNCC1 [Compound 12a, Benzyl 4-(3,4-dichlorophenyl) piperidine-4-carboxylate]",–,100,–
"O=C(O)C(=O)O.O=C(OCc1ccc(Cl)c(Cl)c1)C1(c2ccc(I)cc2)CCNCC1 [Compound 14c, 3,4-Dichlorobenzyl 4-(4-iodophenyl) piperidine-4-carboxylate]",–,–,"NET/SERT [3]: 1,000"
